From patent publication US8598374B2, “GPR120 receptor agonists and uses thereof” (Metabolex, Inc, priority 2008, dated 2013)
pEC50: −log10 of the molar value.

Target: T1, human GPR120 (Homo sapiens, UniProt Q5NUL3)
T1 construct: Flag (DYKDDDDK) (N); host or cells: HEK293 cells co-expressing Gqi5
T1 sequence (Q5NUL3 1-361): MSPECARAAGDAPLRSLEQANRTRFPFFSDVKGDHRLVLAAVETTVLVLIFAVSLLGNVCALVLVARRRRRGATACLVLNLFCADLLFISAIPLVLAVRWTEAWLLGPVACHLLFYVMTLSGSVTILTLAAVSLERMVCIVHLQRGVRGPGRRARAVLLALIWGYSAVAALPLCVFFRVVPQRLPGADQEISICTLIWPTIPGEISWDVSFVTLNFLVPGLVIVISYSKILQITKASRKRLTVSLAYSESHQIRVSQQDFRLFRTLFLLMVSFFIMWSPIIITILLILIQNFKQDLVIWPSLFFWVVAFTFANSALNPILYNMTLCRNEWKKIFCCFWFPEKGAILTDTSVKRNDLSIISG
Experiment: Intracellular Ca2+ assay (FLIPR Calcium 4, Flexstation) in human GPR120 stable cell line
Type: cell-based
Details: % activity at 2.5 μM compared to the maximal activity of the compound of Example 25 at 2.5 μM; HEK293 cells co-expressing Gqi5
Outline: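 HEK293 cells co-expressing Gqi5 and stably expressing Flag-tagged human GPR120 were seeded at 70,000 cells per well in poly-D-lysine coated 96 well plates and loaded with FLIPR Calcium 4 dye for 50 minutes at 37° C. On a Flexstation, compound-induced fluorescence (excitation 485 nm, emission 525) was recorded for 90 seconds. Percent activity was expressed against a reference agonist's maximal activity at 2.5 μM, set as 100%.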

Point of comparison: Cc1cc2c(OCc3cc(F)cc4c3OC(C)(C)C4)ccc(CCC(=O)O)c2o1 [Example 125, 3-(4-((5-fluoro-2,2-dimethyl-2,3-dihydrobenzofuran-7-yl)methoxy)-2-methylbenzofuran-7-yl)propanoic acid], “% Activity (Ex. 25 Reference Compound)” value 32.57%. Against it:
- CC(C)Oc1ccc(Cl)cc1COc1cc2c(cc1F)C(CC(=O)O)CC2 (stereo not drawn) [Example 257, 2-(5-((5-chloro-2-isopropoxybenzyl)oxy)-6-fluoro-2,3-dihydro-1H-inden-1-yl)acetic acid] — higher, 124.62%
- CC(Cc1ccc(OCc2cc(F)cc3c2OC(C)(C)C3)cc1)C(=O)NO (stereo not drawn) [Example 264, 3-(4-((5-fluoro-2,2-dimethyl-2,3-dihydrobenzofuran-7-yl)methoxy)phenyl)-N-hydroxy-2-methylpropanamide] — higher, 110.24%
- CC(Cc1ccc(COc2cccc3c2OC(C)(C)C3)c(F)c1)C(=O)O (stereo not drawn) [Example 44, 3-(4-(((2,2-dimethyl-2,3-dihydrobenzofuran-7-yl)oxy)methyl)-3-fluorophenyl)-2-methylpropanoic acid] — higher, 157.14%
- CCCc1cc(OCc2cc(Cl)cc3c2OC(C)(C)C3)c(F)cc1CCC(=O)O [Example 73, 3-(4-((5-chloro-2,2-dimethyl-2,3-dihydrobenzofuran-7-yl)methoxy)-5-fluoro-2-propylphenyl)propanoic acid] — higher, 114.85%
- COc1cc(CCC(=O)O)ccc1OCc1cc(F)cc2c1OC(C)(C)C2 [Example 173, 3-(4-((5-fluoro-2,2-dimethyl-2,3-dihydrobenzofuran-7-yl)methoxy)-3-methoxyphenyl)propanoic acid] — higher, 159.06%
- Cc1c(CCC(=O)O)ccc(OCc2cc(F)cc3c2OC(C)(C)C3)c1C [Example 208, 3-(4-((5-fluoro-2,2-dimethyl-2,3-dihydrobenzofuran-7-yl)methoxy)-2,3-dimethylphenyl)propanoic acid] — higher, 147.47%
- CC(Cc1cc(F)c(OCc2cc(OCc3ccccc3)cc3c2OC(C)(C)C3)c(F)c1)C(=O)O (stereo not drawn) [Example 111, 3-(4-((5-(benzyloxy)-2,2-dimethyl-2,3-dihydrobenzofuran-7-yl)methoxy)-3,5-difluorophenyl)-2-methylpropanoic acid] — higher, 51.55%
- CC1(C)Cc2cc(F)cc(CCc3ccc(OCC(=O)O)cc3)c2O1 [Example 70, 2-(4-(2-(5-fluoro-2,2-dimethyl-2,3-dihydrobenzofuran-7-yl)ethyl)phenoxy)acetic acid] — higher, 117.72%
- Cc1cc2cccc(COc3c(F)cc(CC(C)C(=O)O)cc3F)c2s1 (stereo not drawn) [Example 151, 3-(3,5-difluoro-4-((2-methylbenzo[b]thiophen-7-yl)methoxy)phenyl)-2-methylpropanoic acid] — higher, 117.38%
- CCc1cc(OCc2cccc3c2CC(C)(C)O3)ccc1CCC(=O)O [Example 140, 3-(4-((2,2-dimethyl-2,3-dihydrobenzofuran-4-yl)methoxy)-2-ethylphenyl)propanoic acid] — higher, 146.18%
- CC1(C)Cc2cc(F)cc(COc3ccc(C4CC4C(=O)O)cc3)c2O1 (single isomer, unassigned) [Example 131B, 2-(4-((5-fluoro-2,2-dimethyl-2,3-dihydrobenzofuran-7-yl)methoxy)phenyl)cyclopropanecarboxylic acid] — higher, 105.8%
- CN(C)Cc1cc(OCc2cc(F)cc3c2OC(C)(C)C3)ccc1CCC(=O)O [Example 122, 3-(2-((dimethylamino)methyl)-4-((5-fluoro-2,2-dimethyl-2,3-dihydrobenzofuran-7-yl)methoxy)phenyl)propanoic acid] — lower, 3.58%
- COc1cccc(-c2cc(COc3ccc(CC(C)C(=O)O)cc3)c3c(c2)CC(C)(C)O3)c1 (stereo not drawn) [Example 86, 3-(4-((5-(3-methoxyphenyl)-2,2-dimethyl-2,3-dihydrobenzofuran-7-yl)methoxy)phenyl)-2-methylpropanoic acid] — lower, 5.23%
- CCOC(Cc1cc(F)c(OCc2cc(F)cc3c2OC(C)(C)C3)c(F)c1)C(=O)O (stereo not drawn) [Example 69, 3-(3,5-difluoro-4-((5-fluoro-2,2-dimethyl-2,3-dihydrobenzofuran-7-yl)methoxy)phenyl)-2-ethoxypropanoic acid] — higher, 78.46%
- COc1cc(OCc2cc(Cl)cc3c2OC2(CCCC2)C3)ccc1CCC(=O)O [Example 194, 3-(4-((5-chloro-3H-spiro[benzofuran-2,1′-cyclopentane]-7-yl)methoxy)-2-methoxyphenyl)propanoic acid] — higher, 148.21%
- CC1(C)Cc2cc(Cl)cc(COc3ccc4c(c3)CC[C@@H]4CC(=O)O)c2O1 [Example 179, (R)-2-(5-((5-chloro-2,2-dimethyl-2,3-dihydrobenzofuran-7-yl)methoxy)-2,3-dihydro-1H-inden-1-yl)acetic acid] — higher, 105.44%
- [2H]C([2H])(Oc1ccc(CC(C)C(=O)O)cc1C(F)(F)F)c1cc(F)cc2c1OC(C)(C)C2 (stereo not drawn) [Example 231, 3-(4-(dideuterio(5-fluoro-2,2-dimethyl-2,3-dihydrobenzofuran-7-yl)methoxy)-3-(trifluoromethyl)phenyl)-2-methylpropanoic acid] — higher, 101.01%
- CC(Cc1ccc(OCc2ccc(F)c3c2CC(C)(C)O3)cc1)C(=O)O (stereo not drawn) [Example 91, 3-(4-((7-fluoro-2,2-dimethyl-2,3-dihydrobenzofuran-4-yl)methoxy)phenyl)-2-methylpropanoic acid] — higher, 121.29%
- CC1(C)Cc2cc(F)cc(COc3ccc(C4CC4C(=O)O)cc3)c2O1 (single isomer, unassigned) [Example 131A, 2-(4-((5-fluoro-2,2-dimethyl-2,3-dihydrobenzofuran-7-yl)methoxy)phenyl)cyclopropanecarboxylic acid] — higher, 103.75%
- CC(CCc1ccc(OCc2cc(F)cc3c2OC(C)(C)C3)cc1)C(=O)O (stereo not drawn) [Example 171, 4-(4-((5-fluoro-2,2-dimethyl-2,3-dihydrobenzofuran-7-yl)methoxy)phenyl)-2-methylbutanoic acid] — higher, 98.97%
- CC(Cc1ccc(OCc2cc(Cl)cc3c2OCC3(C)C)cc1)C(=O)O (stereo not drawn) [Example 148, 3-(4-((5-chloro-3,3-dimethyl-2,3-dihydrobenzofuran-7-yl)methoxy)phenyl)-2-methylpropanoic acid] — higher, 113.89%
- [2H]C1([2H])c2cc(Cl)cc(COc3ccc(CC(C)C(=O)O)cc3F)c2OC1(C)C (stereo not drawn) [Example 146, 3-(4-((3,3-dideuterio-5-chloro-2,2-dimethyl-2,3-dihydrobenzofuran-7-yl)methoxy)-3-fluorophenyl)-2-methylpropanoic acid] — higher, 140.72%
- CC1(C)Cc2cc(Cl)cc(COc3ccc(CCC(=O)O)c(F)c3)c2O1 [Example 53, 3-(4-((5-chloro-2,2-dimethyl-2,3-dihydrobenzofuran-7-yl)methoxy)-2-fluorophenyl)-propanoic acid] — higher, 143.19%
- CC1(C)Cc2cc(F)cc(COc3ccc(CC(=O)O)cc3)c2O1 [Example 133, 2-(4-((5-fluoro-2,2-dimethyl-2,3-dihydrobenzofuran-7-yl)methoxy)phenyl)acetic acid] — higher, 103.4%
- CC(Cc1ccc(OCc2cc(Cl)cc3c2OC2(CCCC2)C3)cc1)C(=O)O (stereo not drawn) [Example 159, 3-(4-((5-chloro-3H-spiro[benzofuran-2,1′-cyclopentane]-7-yl)methoxy)phenyl)-2-methylpropanoic acid] — higher, 164.79%

Same assay, conditions: human GPR120 stably expressing cells, eight concentrations from 0.00001 to 20 μM

CC(Cc1ccc(OCc2cc(-c3cccc(C(F)(F)F)c3)cc3c2OC(C)(C)C3)cc1)C(=O)O (stereo not drawn) [Example 87, 3-(4-((2,2-dimethyl-5-(3-(trifluoromethyl)phenyl)-2,3-dihydrobenzofuran-7-yl)methoxy)phenyl)-2-methylpropanoic acid] and COc1cccc(-c2cc(COc3ccc(CC(C)C(=O)O)cc3)c3c(c2)CC(C)(C)O3)c1 (stereo not drawn) [Example 86, 3-(4-((5-(3-methoxyphenyl)-2,2-dimethyl-2,3-dihydrobenzofuran-7-yl)methoxy)phenyl)-2-methylpropanoic acid] fall in the same range of pEC50: 5.00 to 6.00 for the first, 5.00 to 6.00 for the second.

Cc1cc2c(OCc3cc(F)cc4c3OC(C)(C)C4)ccc(CCC(=O)O)c2o1 [Example 125, 3-(4-((5-fluoro-2,2-dimethyl-2,3-dihydrobenzofuran-7-yl)methoxy)-2-methylbenzofuran-7-yl)propanoic acid] and CC1(C)Cc2cc(Cl)cc(COc3ccc(CCC(=O)O)c(F)c3)c2O1 [Example 53, 3-(4-((5-chloro-2,2-dimethyl-2,3-dihydrobenzofuran-7-yl)methoxy)-2-fluorophenyl)-propanoic acid] fall in the same range of pEC50: 5.00 to 6.00 for the first, 5.00 to 6.00 for the second.

CC(Cc1ccc(OCc2ccc(F)c3c2CC(C)(C)O3)cc1)C(=O)O (stereo not drawn) [Example 91, 3-(4-((7-fluoro-2,2-dimethyl-2,3-dihydrobenzofuran-4-yl)methoxy)phenyl)-2-methylpropanoic acid] and CC1(C)Cc2c(C(F)(F)F)ccc(COc3c(F)cc(C4CC4C(=O)O)cc3F)c2O1 (stereo not drawn) [Example 31, 2-(4-((2,2-dimethyl-4-(trifluoromethyl)-2,3-dihydrobenzofuran-7-yl)methoxy)-3,5-difluorophenyl)cyclopropanecarboxylic acid] fall in the same range of pEC50: 5.00 to 6.00 for the first, 5.00 to 6.00 for the second.

Same assay, conditions: typical value, reference compound

For CC1(C)Cc2cccc(COc3c(F)cc(CCC(=O)O)cc3F)c2O1 [Example 25, 3-(4-((2,2-dimethyl-2,3-dihydrobenzofuran-7-yl)methoxy)-3,5-difluorophenyl)propanoic acid], the “concentration at which activity reached a maximum” value was “approximately 2.5 μM”.
